Experimental data as given in publication PMC10863309 (Redox Biology, 2024).
Values joined by “and” are separate entries in the source; they are usually repeats but may differ in a detail not shown here. Identical values can stand only once. Like-named read-outs stand apart in the source and are kept apart here.

Assays:
[1] = tested on: LPS-induced NO release of BV2 microglial cells; assay: Nitrite quantification; type: cell-based, mouse; settings: 1 h pretreatment, LPS 800 ng/ml 24 h
BV2 cells = assay: MTT cell viability assay; type: cell-based, mouse
[2] = Mus musculus, BV-2, read-out: Cell viability IC50

Compound	NO Inhibition (% of LPS) LPS/drugs (0.7 μM) [1]	NO Inhibition (% of LPS) LPS/drugs (1.5 μM) [1]	NO Inhibition (% of LPS) LPS/drugs (3 μM) ([1]; 3 μM)	IC50 (BV2 cells; [2]) [µM]	NO Inhibition (% of LPS) LPS/drugs (12 μM) ([1]; 12 μM)	NO Inhibition (% of LPS) LPS/drugs (25 μM) ([1]; 25 μM)	NO Inhibition (% of LPS) LPS/drugs (50 μM) ([1]; 50 μM)	IC50 (BV2 cells; read-out: Cell viability IC50, BV2 microglial cells) [µM]
CC[C@]12C=CCN3CC[C@]4(C(=C(C(=O)OC)C1)Nc1ccccc14)[C@@H]32 [Compound 7, tabersonine]	18.8 ± 7.0 % of LPS	29.3 ± 3.1 % of LPS	45.9 ± 2.4 % of LPS	16.1 ± 1.1	–	–	–	–
C[C@@H]1C[C@H]2[C@@H]3CCC4=CC(=O)C=C[C@]4(C)[C@@]3(F)[C@@H](O)C[C@]2(C)[C@@]1(O)C(=O)CO [Dexamethasone, reference compound]	–	–	–	> 100	61.9 ± 4.7 % of LPS	71.1 % of LPS and 71.1 ± 3.0 % of LPS	75.1 ± 1.9 % of LPS	–
lochnericine [Compound 2]	11.2 ± 2.0 % of LPS	31.3 ± 3.2 % of LPS	–	–	–	–	–	28.7 ± 1.2
